From the METLIN SMRT retention time set (Domingo-Almenara et al. 2019)

Experiment: gradient 5% acetonitrile 3 min, to 50% in 2 min, to 85% in 15 min, held 3 min, 100 µL/min
Conditions: column: Zorbax Extend-C18 2.1 x 50 mm; eluents: water / acetonitrile, 0.1% formic acid
In short: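 Each retention time is based on an adduct peak selected computationally and verified by manual inspection. Measurements used HPLC–quadrupole time-of-flight mass spectrometry in positive and negative ionization mode on mixtures of ~100 pure standards. Chromatography ran on a Zorbax Extend-C18 column (2.1 × 50 mm, 1.8 μm) at 100 μL/min with water and acetonitrile, each containing 0.1% formic acid, and dead and dwell volumes of 40 μL and 900 μL.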

| RP-LC retention time [s] | Compound |
| --- | --- |
| 587 | Cc1ccc(CN2CCC(N3CC(F)(F)C[C@H]3COc3cccnc3)CC2)s1 |
| 616 | Cc1ccccc1CN1CCC(CNS(=O)(=O)c2ccc3c(c2)CCCC(=O)N3)CC1 |
| 621 | CCc1ccc2nc(C)cc(C(=O)NC(C)C)c2c1 |
| 615 | CCN1CCN(CC2=C(C(=O)OC)C(c3ccccc3C)NC(=O)N2)CC1 (stereo not given) |
| 825 | N#Cc1ccc(Cl)cc1NC(=O)C(=O)NCC(O)C1CCCCC1 (stereo not given) |
| 692 | CCC(CC)NC(=O)[C@@H]1[C@H](c2cc(OC)c(OC)c(OC)c2)c2cc3c(cc2[C@H](O)[C@H]1CO)OCO3 |
| 960 | Cc1cccc(-n2c(=O)c3c(cc(C)n3C)n(CC(=O)Nc3cccc(Cl)c3C)c2=O)c1 |
| 991 | COc1ccc(N2CCN(c3ccc4cc(S(=O)(=O)N5CCCCC5C)ccc4n3)CC2)cc1 (stereo not given) |
| 1250 | COc1ccc(-c2noc(C3(NC(=O)c4cccc(Cl)c4)CCCCC3)n2)cc1 |
| 589 | COc1cc(OC)cc(C(=O)NCC2(O)CCOCC2)c1 |
| 614 | COc1ccc(N2CCN(Cc3nc4ccccc4[nH]c3=O)CC2)cc1 |
| 875 | COC(=O)c1cc(S(=O)(=O)N2CCCC2C(=O)Nc2ccc(F)cc2F)cn1C (stereo not given) |
| 1080 | Cc1nc(C)c(C(=O)N2CCC(Oc3ccc(-c4noc(-c5ccccc5)n4)cc3)C2)s1 (stereo not given) |
| 1090 | CC(CCc1ccccc1)NC(=O)Cn1cccc1-c1nc(-c2ccc3c(c2)OCO3)no1 (stereo not given) |
| 904 | CCCn1cc(S(=O)(=O)Nc2ccccc2OC)c2cccnc21 |
| 550 | Cc1noc(C)c1CN1CCN(C(=O)Cn2c(=O)oc3ccccc32)CC1 |
| 850 | COc1ccc(NC(=O)C(C)C2CCN(C(=O)Nc3ccccc3)CC2)cc1Cl (stereo not given) |
| 669 | Cc1cccc(Cn2nnc(C(=O)O)c2-c2cccnc2)c1 |
| 1140 | COc1ccccc1/C=C1\Cc2ccccc2C1=O |
| 869 | CC(C)NC(=O)c1ccc(OCC2CCCN(C(=O)c3ccc(F)cc3F)C2)cc1 (stereo not given) |
| 1080 | Cc1ccc(-c2nc3cnccn3c2Nc2cccc(Cl)c2C)cc1 |
| 715 | Cc1cccc(N2CCN(c3cc(C(=O)O)c4cc(NS(C)(=O)=O)ccc4n3)CC2)c1C |

| RP-LC retention time [s] | Compound |
| --- | --- |
| 627 | CCc1nnc(C2CN(C)CC23CCN(S(=O)(=O)c2ccccc2C)CC3)o1 (stereo not given) |
| 650 | CN(C)C(CNC(=O)c1cc(=O)c2ccccc2o1)c1ccccc1Cl (stereo not given) |
| 927 | Cc1ccc(CNC(=O)C2(C)CN(S(C)(=O)=O)CC(=O)N2CCCc2ccccc2)cc1 (stereo not given) |
| 982 | CCOc1ccc(NC(=O)C2CCCN(S(=O)(=O)c3cc(-c4noc(C)n4)cs3)C2)cc1 (stereo not given) |
| 972 | O=C(CN1C(=O)C(C(=O)N2CCCC2)Sc2ccccc21)NCc1cccc(Br)c1 (stereo not given) |
| 874 | COCCN1C(=O)c2ccccc2C(C(=O)NCCc2ccc(F)cc2)C12CCCC2 (stereo not given) |
| 639 | Cc1ccc(N2CCN(Cc3nc4nc(C)cc(N5CCCC5)n4n3)CC2)cc1 |
| 655 | COCCCNC(=O)CN1C(=O)C2CCCCN2c2ccc(C(=O)N(C)C)cc21 (stereo not given) |
| 691 | Cc1nnc(C2CCCCCN2S(=O)(=O)c2cccnc2)o1 (stereo not given) |
| 682 | COc1ccc(Cl)cc1NC(=O)N1CCC(n2c(C)nc3cccnc32)CC1 |
| 778 | CC(C)CCNC(=O)CCC(=O)N1CCCn2nc(-c3cn(C)c4ccccc34)cc21 |
| 742 | O=C(NCCc1ccccc1)N1CCC(c2noc(-c3ccccn3)n2)C1 (stereo not given) |
| 651 | CC(=O)c1cccc(S(=O)(=O)Nc2ccc(CC(=O)N(C)C)cc2)c1 |
| 884 | O=C(Cn1ccc2ccccc21)N1CCN(c2ccc(F)cc2)CC1 |
| 733 | C=CCn1c(C)c(CC(=O)NC(C)C)c(=O)n2nc(-c3ccccc3)nc12 |
| 762 | CCSc1ccc(-c2cccc(NC(=O)COC)c2)nn1 |
| 746 | CNC(=O)c1ccc2c(c1)CCCN2C(=O)c1cccc(Cl)c1 |
| 792 | COc1ccc(-c2csc(NCCc3ccc(OC)c(OC)c3)n2)cc1 |
| 606 | O=C1NC2=C(C(=O)CCC2)C(c2cccc([N+](=O)[O-])c2)N1 (stereo not given) |
| 724 | COc1ccc(OC)c(NC(=O)Cn2ncc3c(c2=O)N(C2CC2)C(=O)CS3)c1 |
| 1060 | CCCN1C(=O)COc2cc(-c3noc(C(=O)NCCC(C)C)n3)ccc21 |

Further lines, the compound ahead of its results:

| Compound | RP-LC retention time [s] |
| --- | --- |
| Cc1ccc(CNC(=O)C(C)n2nc(C)c3nn(-c4ccccc4)c(C)c3c2=O)o1 (stereo not given) | 807 |
| CCC(c1cccs1)N1C(=O)[C@H]2CN(S(=O)(=O)c3ccccc3F)C[C@H]2C1=O (stereo not given in full) | 972 |
| CCN1C(=O)c2cccnc2Sc2cc(C(=O)N3CCC(C)CC3)ccc21 | 798 |
| O=C(CN1CCN(Cc2ccc(F)cc2)C1=O)NC1CC1 | 649 |
| O=C(CSc1nnc2ccc(-c3cccnc3)nn12)NCc1cccs1 | 588 |
| Cc1nnc(Cc2ccccc2)c2n[nH]c(C)c12 | 647 |
| Cc1cc(F)ccc1N1C(=O)CN(S(C)(=O)=O)CC1(C)C(=O)NCc1ccc(Cl)cc1 (stereo not given) | 856 |
| COc1cccc(-n2cc(C(=O)O)c3ccccc3c2=O)c1 | 760 |
| O=C1CN(C(=O)Cc2ccc(Cl)cc2)C2(CCCC2)CN1 | 761 |
| COCCC1CCN(C(=O)CN(C)C(=O)c2cnccn2)CC1 | 580 |
| O=C(c1ccn2c(-c3cccc(Cl)c3)nnc2c1)N1CCN(c2ccccn2)CC1 | 608 |
| Cc1cccc(NC(=O)C2CCN(S(=O)(=O)c3cc(C(=O)N(C)C)cs3)CC2)c1C | 790 |
| Cc1cc(C)cc(NC(=O)Nc2nccn(-c3cccc(F)c3)c2=O)c1 | 1030 |
| O=C(C1COc2ccccc2O1)N1CCN(c2cc(-c3cccs3)[nH]n2)CC1 (stereo not given) | 839 |
| CCc1ccc(CNC(=O)c2nc3cccnc3n(CC(C)C)c2=O)cc1 | 1100 |
| O=C(NCc1cc(F)ccc1F)C1CCN(c2cncnc2N2CCOCC2)CC1 | 619 |
| O=C(NCc1ccco1)C1CCN(c2nc3ccc(-c4cncnc4)nc3s2)CC1 | 743 |
| COc1ccc(Cl)cc1NC(=O)NCCc1cn(C)c2ncccc12 | 756 |
| COc1cc2oc(=O)c(CC(=O)N3CCN(c4ccccn4)CC3)c(C)c2cc1OC | 588 |
| COC(=O)c1ccc(NC(=O)N2CCCC2c2cc(C(C)C)no2)cc1 (stereo not given) | 845 |
| Cc1ccc(F)c(NC(=O)C2CC(=O)N(c3ccc4c(c3)CCN4C(=O)C3CC3)C2)c1 (stereo not given) | 799 |
| Cc1ccc(Cl)cc1NC(=O)CN1CCN(Cc2ccc(F)cc2)C(=O)C1=O | 804 |
| Cc1ccc(NC(=O)N2CCCC(C)(C(=O)NCc3ccc(F)cc3)C2)cc1F (stereo not given) | 959 |
| COCc1cc(=O)n(Cc2ccccc2F)c(N2CCCC2)n1 | 790 |

| Compound | RP-LC retention time [s] |
| --- | --- |
| Cc1ccc(Nc2c(-c3cc(Br)ccc3F)nc3cc(C)ccn23)cc1 | 818 |
| CCc1ccc(-c2nc(NC(=O)c3cc(C)on3)sc2C)cc1 | 1160 |
| COc1ccc(-c2nc(C)cc(C)c2CNS(=O)(=O)c2cccc(C#N)c2)cc1 | 640 |
| CC1=C(c2ccccc2)S(=O)(=O)N=C1N1CCCN(C(=O)c2sccc2C)CC1 | 721 |
| CCc1nc2c(sc3nc(-c4ccccc4)ccc32)c(=O)n1CC(=O)N1CCc2ccccc2C1 | 1170 |
| Cc1nc(-c2ccncc2)nc2c1CCC(=O)N2CCC1=CCCCC1 | 912 |
| Cc1noc(C)c1CCNC(=O)Cn1c2ccccc2c2cnn(C)c(=O)c21 | 706 |
| COc1ccc(NS(=O)(=O)c2cc(-c3[nH]ncc3C(=O)N3CCCCC3)oc2C)cc1 | 731 |
| Cc1cc(F)ccc1NC(=O)c1cnc2c(c1)c(=O)n(C)c(=O)n2-c1ccccc1 | 854 |
| CCNC(=O)NC1CCN(C(=O)C2CCC2)C1 (stereo not given) | 578 |
| O=C(NC1CCN(Cc2ccccc2)CC1)c1ccc(I)cc1 | 727 |
| COc1ccc(OC)c(NC(=O)c2cc3c(n(-c4ccc(F)cc4)c2=O)CCCC3=O)c1 | 930 |
| Cc1ccc(CNC(=O)Cc2c(C(=O)O)c(C)cn2C)o1 | 695 |
| CCc1cccc(NC(=O)C2CCN(S(=O)(=O)c3ccc4c(c3)CCCC(=O)N4)CC2)c1 | 735 |
| C=CCNC(=O)C1CCN(C(=O)Nc2ccc(NC(=O)Nc3ccccc3F)cc2)CC1 | 710 |
| CCOC(=O)N1CCN(c2nnc(SCC(=O)NCc3ccco3)s2)CC1 | 668 |
| CCC(=O)Nc1cnc(-c2ccc(F)cc2)nc1 | 794 |
| CCOc1ccccc1CNC1CCN(c2ccc(C(=O)NC3CC3)cn2)C1 (stereo not given) | 579 |
| CC(C)c1ccc(NC(=O)Cn2nc(C(=O)N3CCCC3)c3ccccc32)cc1 | 991 |
| Cc1cc(C2CCCN2C(=O)c2c(F)cccc2Cl)on1 (stereo not given) | 773 |
| CC(C)n1c(N2CCN(C(=O)COc3ccc(F)cc3)CC2)cc(=O)n(C(C)C)c1=O | 904 |
| COc1c(C(=O)NC(C)(C)C)sc2ccc(F)cc12 | 1080 |
| CCNc1ccccc1C(=O)O | 782 |
